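Following 48 hours of exposure in 96-well plates, responses at five concentrations were used to interpolate endpoints linearly. The concentration for 50% growth inhibition is given as GI50.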 Activity calls are given as the source filed them. Rule as the data show it: active = GI50 up to about 1.1 µM and inactive = higher.
Experiments:
Test in all cases: inhibition of tumour cell growth, NCI panel, 48 h
[1] = system: Hs-578T
[2] = system: SK-MEL-28
[3] = system: HCT-15
[4] = system: TK-10
[5] = system: T47D
[6] = system: SK-MEL-5
[7] = system: Malme-3M
[8] = system: MDA-MB-435
[9] = system: SF-295
[10] = system: SR
[11] = system: OVCAR-4
[12] = system: UO-31
[13] = system: LOX IMVI
[14] = system: 786-0
[15] = system: DU-145
[16] = system: M14
[17] = system: NCI-H23
[18] = system: SN12C
[19] = system: K562

| SMILES | GI50 [1] | GI50 [2] | GI50 [3] [µM] | GI50 [4] | GI50 [5] | GI50 [6] | GI50 [7] | GI50 [8] | GI50 [9] | GI50 [10] | GI50 [11] | GI50 [12] | GI50 [13] | GI50 [14] | GI50 [15] | GI50 [16] | GI50 [17] | GI50 [18] | GI50 [19] |
| --- | --- | --- | --- | --- | --- | --- | --- | --- | --- | --- | --- | --- | --- | --- | --- | --- | --- | --- | --- |
| Cc1ccc(S(=O)(=O)N2CCN(S(=O)(=O)c3ccc(C)cc3)Cc3ccccc3C2)cc1 | 24.5 µM (inactive) | > 100 µM (inactive) | > 100 | > 100 µM (inactive) | 28.2 µM (inactive) | 29.3 µM (inactive) | > 100 µM (inactive) | 34.3 µM (inactive) | 31 µM (inactive) | > 100 µM (inactive) | 18.8 µM (inactive) | > 100 µM (inactive) | > 100 µM (inactive) | 35.2 µM (inactive) | > 100 µM (inactive) | 33 µM (inactive) | 57.5 µM (inactive) | 53.2 µM (inactive) | > 100 µM (inactive) |
| CCn1c2ccc(C(=O)CCCN3CCCCC3)cc2c2cc(C(=O)CCCN3CCCCC3)ccc21 | 2.44 µM (inactive) | 19.3 µM (inactive) | 1.86 | 2.91 µM (inactive) | 24.2 µM (inactive) | 1.56 µM (inactive) | 6.85 µM (inactive) | 1.72 µM (inactive) | 2.43 µM (inactive) | 2.45 µM (inactive) | 1.33 µM (inactive) | 5.32 µM (inactive) | 1.86 µM (inactive) | 0.938 µM (active) | 5.33 µM (inactive) | 2.04 µM (inactive) | 2.13 µM (inactive) | 4.16 µM (inactive) | 2.97 µM (inactive) |
| O=C(NNc1ccnc2cc(Cl)ccc12)/C(=C\c1ccccc1Cl)NC(=O)c1ccccc1 | 32.5 µM (inactive) | > 100 µM (inactive) | 48.4 | 66.1 µM (inactive) | 32.2 µM (inactive) | 23.8 µM (inactive) | 52.6 µM (inactive) | 38.6 µM (inactive) | 27.5 µM (inactive) | 35 µM (inactive) | 32.8 µM (inactive) | 38.9 µM (inactive) | 17.4 µM (inactive) | 41.6 µM (inactive) | 55.7 µM (inactive) | 31.3 µM (inactive) | 54.7 µM (inactive) | 38.1 µM (inactive) | 34.6 µM (inactive) |
| CCNC(=S)N/N=C/c1cc([N+](=O)[O-])ccc1O | 70.5 µM (inactive) | 51.8 µM (inactive) | 11.6 | 16.2 µM (inactive) | 19.9 µM (inactive) | 10.9 µM (inactive) | 26.5 µM (inactive) | 37.2 µM (inactive) | 35.6 µM (inactive) | 10.9 µM (inactive) | 15.6 µM (inactive) | 22.3 µM (inactive) | 15.7 µM (inactive) | 20.5 µM (inactive) | 83.4 µM (inactive) | 33.7 µM (inactive) | 41.6 µM (inactive) | 31.5 µM (inactive) | 20.6 µM (inactive) |
| Cc1nnc2sc(-c3ccc([N+](=O)[O-])o3)nn12 | 30.3 µM (inactive) |  | 5.06 | 15.3 µM (inactive) | 20 µM (inactive) | 11.8 µM (inactive) | 4.08 µM (inactive) | 4.37 µM (inactive) | 16.9 µM (inactive) | 8.61 µM (inactive) | 15 µM (inactive) | 15.2 µM (inactive) | 3.56 µM (inactive) | 10.3 µM (inactive) | 15 µM (inactive) | 9.91 µM (inactive) | 15.5 µM (inactive) | 11.6 µM (inactive) | 5.33 µM (inactive) |
| CCC12C=CCN3CCC4(c5cc(C(c6ccc(OC)cc6)C6Cc7ccccc7N6)c(OC)cc5N(C)C4C(O)(C(=O)OC)C1O)C32 (configuration not stated) | 63.7 µM (inactive) | 30.2 µM (inactive) | 22 | 22.9 µM (inactive) | 2.9 µM (inactive) | 12.1 µM (inactive) | 36.6 µM (inactive) | 12.7 µM (inactive) | 18.3 µM (inactive) | 8.04 µM (inactive) | 9.33 µM (inactive) | 10.2 µM (inactive) | 14.1 µM (inactive) | 18.7 µM (inactive) | 29 µM (inactive) | 24.2 µM (inactive) | 27 µM (inactive) | 37.4 µM (inactive) | 3.42 µM (inactive) |
| O=C(O)c1cccc(CC(Br)C(=O)O)c1 (configuration not stated) | > 100 µM (inactive) | > 100 µM (inactive) | > 100 | > 100 µM (inactive) | > 100 µM (inactive) | > 100 µM (inactive) | > 100 µM (inactive) | > 100 µM (inactive) | > 100 µM (inactive) | > 100 µM (inactive) | > 100 µM (inactive) | > 100 µM (inactive) | > 100 µM (inactive) | > 100 µM (inactive) | > 100 µM (inactive) | > 100 µM (inactive) | > 100 µM (inactive) | > 100 µM (inactive) | > 100 µM (inactive) |

— ChEMBL document CHEMBL1201862, “PubChem BioAssay data set” (2004)
